The values that follow are results of earlier work, collected in patent publication US9174839B2, “Methods and compositions for wound healing” (IMBED BIOSCIENCES, INC., priority 2008, dated 2015).

For data set [1] the following is noted: incisional wounds.
The test system of the next data set is fibroblasts. The settings on record: in vitro monolayer cell cultures.
The next data set deals with hepatocytes. The settings on record: in vitro.
For a further data set, the system named is keratinocytes. The settings on record: in vitro monolayer cell cultures.
Another data set relates to lymphocytes. The settings on record: in vitro.

As to `CC1=C(/C=C/C(C)=C/C=C/C(C)=C/C(=O)O)C(C)(C)CCC1` [tretinoin], in data set [1], the fibroblastic proliferation result was “increased” and the production of collagen result is on record as “diminished”.

silver ions: the toxicity to fibroblasts entry in the data set on fibroblasts was “cytotoxic effects”. Besides, in the data set with hepatocytes, the “cytotoxic effects on hepatocytes” value is listed as “cytotoxic effects”. For the same molecule, the toxicity to keratinocytes entry with keratinocytes is reported as “cytotoxic effects”. Besides, in the data set with lymphocytes, the “cytotoxic effects on lymphocytes” value is “cytotoxic effects”.
